Series [1] has as its target T1, human mGluR8 (Homo sapiens, UniProt O00222).
T1 construct: host or cells: HEK293 co-expressing Gqi5
The series can be described thus: Multispan Allosteric Profiling panel, Ca2+ (Gqi5). In kind it is cell-based.

The target of series [2] is T2, rat mGluR3 (Rattus norvegicus, UniProt P31422).
T2 construct: expressed in transfected cells; host or cells: inducible HEK-293 cell line (membranes)
The series can be described thus: [3H]LY341495 binding to membranes. As to the method: Membranes were prepared from an inducible HEK-293 cell line expressing rat mGluR2 or mGluR3. Binding assay was adapted from Johnson et al.[29]. Briefly, [^3H]LY341495 (1.4 nM) was evaluated for binding in the presence or in the absence of orthosteric and allosteric ligands. […] Addition of 5–10 μg membrane protein initiated the incubation. After 45 min at room temperature, the incubation was terminated by rapid filtration followed by scintillation counting. Ki’s were calculated using 4-parameter curve fitting.

In series [3] the test system is approximately 180 different receptors, ion channels, enzymes, transporters and kinases. Put plainly: In vitro selectivity profile (CEREP and internal panels). The series is classed as binding. As to conditions: up to 10 μM. The procedure:
The effect of SAR218645 on approximately 180 different receptors, ion channels, enzymes, transporters and kinases (see Supplementary Material Table S1) was evaluated at a contract research organization (CEREP, Celle L’Evescault, France) using established protocols or through internal studies.

Series [4] in a line: Plasma exposure and brain penetration after single oral dose. In kind it is in vivo, mice. As to conditions: male; for AUC(0-inf) / AUC(0-t): CD-1, mouse; for AUC(0-t): tlast 8 h; for Cmax: mouse, CD-1 mice. As to the method: Plasma and brain exposures of SAR218645 in male CD-1 mice (25–30 g at arrival) were measured after single oral doses of 1, 3 and 10 mg/kg. Mouse plasma samples (25.0 μl) were transferred into micro-centrifuge tubes (1.7 ml) and mixed with 50 μl of Internal Standard solution (500 ng/ml in acetonitrile). The tubes were vortex mixed for 1 min and centrifuged at 10,000 g for 5 min. An aliquot of the supernatant (50 μl) was transferred into an autosampler vial and mixed with 100 μl of water for LC/MS/MS analysis. Each mouse brain was first homogenized with 3.0 ml of 25% acetonitrile in water. The tissue homogenates (50.0 μl) were transferred into micro-centrifuge tubes (1.7 ml) and mixed with 100 μl of Internal Standard solution (500 ng/ml of A000597492 in acetonitrile). The tubes were vortex mixed for 1 min and centrifuged at 10,000 g for 5 min. An aliquot of the supernatant (50 μl) was transferred into an autosampler vial and mixed with 100 μl of water for LC/MS/MS analysis. The lower limits of quantitation (LLOQ) for SAR218645 were 0.500 ng/ml for plasma and 0.100 ng/ml for brain homogenate. The calibration curves were linear in the above prepared concentration ranges. The LLOQ for brain tissue was estimated to be approximately 0.80 ng/g. The pharmacokinetic parameters were calculated from the arithmetic mean of the group sample concentrations using the program WinNonLin 5.2., non-compartment model 200 for the extravascular routes.

Series [5] deals with CD-1 mice. Put plainly: LY404039-induced turning behavior. In kind it is in vivo. As to the method:
Under light restraint, a single unilateral intracortical infusion of the selective mGluR2/3 receptor agonist, LY404039, was performed in CD-1 mice (25–30 g at arrival). An injection point was assessed using the eyes and back of the skull as landmarks. Immediately following the application of LY404039, the observation period began. The number of contralateral turns elicited in a 5 min period was recorded. SAR218645 was administered orally 60 min before infusion of LY404039 and the potentiation of the turning behavior was noted. The selective mGluR2/3 receptor antagonist, LY341495, was administered ip 90 min prior to infusion of LY404039. Statistical analysis was performed using Kruskal Wallis test followed by a Wilcoxon two-tailed comparison. Ten animals per group were used.

The subject of series [6] is OF1 mice. The series can be described thus: 6-Hz electroshock-induced seizures. The series is classed as in vivo. As to conditions: dose-range 10–30, ip. As to the method: SAR218645 (10 and 30 mg/kg, po) and the reference anticonvulsant agent, levetiracetam (20 mg/kg), were administered ip. to OF1 mice (12–14 g) 30 min prior to test, respectively. An electrical stimulus (6 Hz, 0.2 ms rectangular pulse, 3 s duration, 32 mA) was applied to both corneas. Animals were closely observed and rated for seizure behavior according to a modified Racine scale. Kruskal-Wallis multiple comparisons test was used to assess potential differences between treatment groups.

The target in series [7] is human mGluR2 (Homo sapiens, UniProt Q14416). The series can be described thus: Forskolin-stimulated cAMP accumulation in HEK293 cells. In kind it is cell-based. Set-up: expressed in transfected cells; host or cells: HEK293 Flp-in-T-REx (inducible), co-expressing Gα16. The procedure: Recombinant human mGluR2 receptor and the excitatory amino acid transporter SLCA1 were stably expressed in a doxycycline inducible HEK293 Flp-in-T-Rex cell line. […] Cells were treated with the compounds, and cAMP production was induced with 1 μM Forskolin for 5 min. cAMP was detected using the CisBio HTRF detection kit. […] EC50 were calculated using 4-parameter curve fitting.
(In general: cAMP levels reflect the balance of adenylyl cyclase and phosphodiesterase activity.)

Bounds are passed on as bounds.

T2 sequence (P31422 23-879): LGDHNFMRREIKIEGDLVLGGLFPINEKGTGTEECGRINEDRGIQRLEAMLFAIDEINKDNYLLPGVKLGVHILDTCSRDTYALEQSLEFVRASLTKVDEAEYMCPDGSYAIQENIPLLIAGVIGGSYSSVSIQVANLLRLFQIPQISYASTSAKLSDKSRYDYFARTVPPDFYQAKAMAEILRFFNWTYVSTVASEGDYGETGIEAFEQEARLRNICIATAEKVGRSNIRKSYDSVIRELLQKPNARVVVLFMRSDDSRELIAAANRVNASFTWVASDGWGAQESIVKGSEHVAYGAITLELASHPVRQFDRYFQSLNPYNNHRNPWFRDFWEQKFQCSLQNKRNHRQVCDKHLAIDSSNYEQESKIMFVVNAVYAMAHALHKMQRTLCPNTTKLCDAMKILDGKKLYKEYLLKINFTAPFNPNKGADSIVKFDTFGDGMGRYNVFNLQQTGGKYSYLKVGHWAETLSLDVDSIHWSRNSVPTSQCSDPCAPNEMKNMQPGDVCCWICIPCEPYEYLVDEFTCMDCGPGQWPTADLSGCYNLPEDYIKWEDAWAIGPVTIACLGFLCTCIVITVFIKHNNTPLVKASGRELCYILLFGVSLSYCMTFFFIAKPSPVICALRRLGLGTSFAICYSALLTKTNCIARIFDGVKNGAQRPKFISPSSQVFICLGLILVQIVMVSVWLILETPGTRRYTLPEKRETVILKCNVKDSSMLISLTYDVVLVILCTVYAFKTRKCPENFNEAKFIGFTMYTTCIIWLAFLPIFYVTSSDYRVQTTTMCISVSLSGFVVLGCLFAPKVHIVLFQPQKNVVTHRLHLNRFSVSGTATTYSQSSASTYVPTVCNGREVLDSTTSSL
T1 sequence (O00222 34-908): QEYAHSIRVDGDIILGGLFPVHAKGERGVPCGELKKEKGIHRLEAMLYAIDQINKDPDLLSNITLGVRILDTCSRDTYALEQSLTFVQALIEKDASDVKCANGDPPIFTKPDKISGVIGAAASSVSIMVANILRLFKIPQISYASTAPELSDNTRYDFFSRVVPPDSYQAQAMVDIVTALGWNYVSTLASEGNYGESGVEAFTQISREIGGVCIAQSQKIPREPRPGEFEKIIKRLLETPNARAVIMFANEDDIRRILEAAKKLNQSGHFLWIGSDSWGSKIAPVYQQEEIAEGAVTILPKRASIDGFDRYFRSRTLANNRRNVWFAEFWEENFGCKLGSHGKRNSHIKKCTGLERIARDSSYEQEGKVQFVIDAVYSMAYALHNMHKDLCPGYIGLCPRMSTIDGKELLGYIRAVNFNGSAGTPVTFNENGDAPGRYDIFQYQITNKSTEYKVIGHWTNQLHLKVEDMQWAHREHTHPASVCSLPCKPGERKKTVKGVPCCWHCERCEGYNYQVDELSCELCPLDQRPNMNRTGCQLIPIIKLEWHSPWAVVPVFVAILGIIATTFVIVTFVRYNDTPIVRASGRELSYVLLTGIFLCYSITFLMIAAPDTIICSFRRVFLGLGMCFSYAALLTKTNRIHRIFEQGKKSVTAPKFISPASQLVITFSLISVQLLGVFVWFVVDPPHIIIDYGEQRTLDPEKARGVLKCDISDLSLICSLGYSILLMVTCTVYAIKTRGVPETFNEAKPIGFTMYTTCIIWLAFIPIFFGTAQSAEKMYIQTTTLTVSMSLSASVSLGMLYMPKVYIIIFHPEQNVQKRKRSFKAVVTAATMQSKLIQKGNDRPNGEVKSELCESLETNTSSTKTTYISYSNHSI
Chain of human mGluR2 (Q14416 19-872): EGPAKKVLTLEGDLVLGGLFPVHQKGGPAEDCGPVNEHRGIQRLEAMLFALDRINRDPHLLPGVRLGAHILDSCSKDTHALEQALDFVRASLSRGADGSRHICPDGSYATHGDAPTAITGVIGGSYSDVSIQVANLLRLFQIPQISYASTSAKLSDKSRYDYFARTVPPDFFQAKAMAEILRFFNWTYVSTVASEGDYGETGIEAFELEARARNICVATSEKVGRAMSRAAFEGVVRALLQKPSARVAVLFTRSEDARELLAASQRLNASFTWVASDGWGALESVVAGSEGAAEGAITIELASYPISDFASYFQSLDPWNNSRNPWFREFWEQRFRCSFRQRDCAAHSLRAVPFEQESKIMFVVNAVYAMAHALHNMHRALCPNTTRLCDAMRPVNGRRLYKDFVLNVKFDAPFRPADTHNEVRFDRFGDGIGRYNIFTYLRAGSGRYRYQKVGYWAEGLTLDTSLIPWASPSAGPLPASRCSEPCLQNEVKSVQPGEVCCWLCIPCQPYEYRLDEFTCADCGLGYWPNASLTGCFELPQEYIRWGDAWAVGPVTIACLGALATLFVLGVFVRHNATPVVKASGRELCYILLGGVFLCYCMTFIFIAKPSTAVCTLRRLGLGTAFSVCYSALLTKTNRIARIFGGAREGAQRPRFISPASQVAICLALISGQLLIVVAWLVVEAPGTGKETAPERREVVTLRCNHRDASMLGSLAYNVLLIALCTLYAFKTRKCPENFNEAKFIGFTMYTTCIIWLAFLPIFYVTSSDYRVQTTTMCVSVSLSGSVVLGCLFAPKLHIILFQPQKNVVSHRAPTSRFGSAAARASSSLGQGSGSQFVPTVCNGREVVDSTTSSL

Usually AUC(0-inf) stands for total exposure, with the tail of the curve extrapolated. The AUC(0-t) is the area under the concentration-time curve up to a stated or last time point. One may read the Cmax as the maximum level reached in the sampled fluid or tissue. A word on the EC50: it is the concentration at which the effect is half-maximal. Lower therefore signals a more potent agent. Regarding `CC1(C)CCc2cc(OC[C@@H]3Cn4ccc(=O)nc4O3)ccc21` [SAR218645, (S)-2-(1,1-dimethyl-indan-5-yloxymethyl)-2,3-dihydro-oxazolo[3,2-a]pyrimidin-7-one], in series [1] (10 μM SAR218645), the “effect on glutamate-induced activation” value is listed as “no effect”. Also, the “calcium response to compound alone” value in series [1] (SAR218645 alone) was “did not elicit a calcium response”. Moreover, the “effect on [3H]LY341495 binding, compound alone” value in series [2] (applied alone) was “no effect”. Further, in series [2] (with glutamate), the “effect on glutamate-mediated inhibition of [3H]LY341495 binding” value is “nor did the drug affect”. Further, the “inhibition of radioligand binding, panel” value in series [3] is “no interaction”. Also, the area under the curve AUC(0-inf) in series [4] (plasma, 1 mg/kg oral) was 230 ng·h/mL; in series [4] (plasma, 3 mg/kg oral), 540 ng·h/mL; in series [4] (plasma, 10 mg/kg oral), 2400 ng·h/mL. Also, the AUC(0-t) amounted to 230 ng·h/mL in series [4] (plasma, 1 mg/kg oral); 540 ng·h/mL in series [4] (plasma, 3 mg/kg oral); 2300 ng·h/mL in series [4] (plasma, 10 mg/kg oral). Further, the Cmax in series [4] (brain, 1 mg/kg oral) is 32 ng/g; in series [4] (brain, 3 mg/kg oral), 103 ng/g; in series [4] (brain, 10 mg/kg oral), 339 ng/g; in series [4] (plasma, 1 mg/kg oral) it was 131 ng/mL; in series [4] (plasma, 3 mg/kg oral), 434 ng/mL; in series [4] (plasma, 10 mg/kg oral), 1080 ng/mL. Further, in series [5] (3 and 10 mg/kg po, 60 min before LY404039 infusion, P < 0.01), the “effect on LY404039-induced turning behavior” value is given as “potentiated significantly”. Also, the Minimal active dose in series [5] (dose-range 1–10, po, CD-1 mice) is given as 3 mg/kg; in series [6], over 30 mg/kg. Also, in series [7], the EC50 worked out at 159 nM.
